Experimental data from patent US20070286888A1, “Additive For Feeds And Feed Containing The Same” (Kabushiki Kaisha Yakult Honsha, priority 2004, published 2007).

Assays:
[1] = tested on: L. reuteri YIT0480 strain; test: Antibiotic resistance test, L. reuteri; assay type: cell-based, Lactobacillus reuteri
Protocol: (§1) The 11 antibiotics shown in Table 3 were separately added at concentrations of 100, 10, 1, 0.1, and 0 μg/ml, to thereby prepare MRS agar mediums (manufactured by Difco). Subsequently, cell culture solutions of the five bacterial stains (A) and (B) obtained in Production Example 1 (10 μl each) were separately inoculated into the respective antibiotic-containing MRS mediums (the cell number of each bacterial strain: about 1·10^8 cells/ml), followed by smear culture at 37° C. for 48 hours under anaerobic conditions. The proliferated bacteria were evaluated with the naked eye, and the […] for each antibiotic (μg/ml) were calculated.

[2] = tested on: L. equi YIT0483 strain; test: Antibiotic resistance test, L. equi; assay type: cell-based, Lactobacillus equi
Protocol: as §1

[3] = Proliferative activity test in skim milk media; assay type: cell-based; parameters: key to Proliferative activity 24 hours later SM / Proliferative activity 24 hours later YE / Proliferative activity 24 hours later P / Proliferative activity 24 hours later YP / Proliferative activity 48 hours later SM / Proliferative activity 48 hours later YE / Proliferative activity 48 hours later P / Proliferative activity 48 hours later YP: ∘: completely solidified culture solution due to proliferated cells; Δ: semifluid culture solution with slightly proliferated cells; x: liquid culture solution with unproliferated cells; conditions: for Proliferative activity 24 hours later P / Proliferative activity 48 hours later P: 0.1% peptone +10% skim milk; for Proliferative activity 24 hours later P / Proliferative activity 48 hours later P / Proliferative activity 24 hours later YP / Proliferative activity 48 hours later YP / Proliferative activity 24 hours later YE / Proliferative activity 48 hours later YE / Proliferative activity 24 hours later SM / Proliferative activity 48 hours later SM: 37° C.; for Proliferative activity 24 hours later YP / Proliferative activity 48 hours later YP: 0.1% yeast extract +0.1% peptone +10% skim milk; for Proliferative activity 24 hours later YE / Proliferative activity 48 hours later YE: 0.1% yeast extract +10% skim milk; for Proliferative activity 24 hours later SM / Proliferative activity 48 hours later SM: 10% skim milk
Protocol: Four mediums, i.e., 10% skim milk (SM), 0.1% yeast extract (manufactured by Difco) +10% skim milk (YE), 0.1% peptone (manufactured by Difco) +10% skimmilk (P), and 0.1% yeast extract (manufactured by Difco) +0.1% peptone (manufactured by Difco) +10% skimmilk (YP) were subjected to high-pressure heat sterilization at 115° C. for 15 minutes, and then cell culture solutions of the five bacterial stains (A) and (B) obtained in Production Example 1 above (30 μl each) were separately inoculated into 3 ml of the respective mediums (the cell number of each bacterial strain: about 3·10^8 cells/ml), followed by culture at 37° C. for 24 hours and 48 hours. For proliferative activity tests, the culture solutions were evaluated based on the following criteria: completely solidified culture solution due to proliferated cells: “∘”; semifluid culture solution with slightly proliferated cells: “Δ”; and liquid culture solution with unproliferated cells: “x”.

[4] = tested on: horse gastric mucosal epithelial cell; test: Cell adhesion test to horse gastric mucosal epithelial cell; assay type: cell-based; conditions: for Adhesion of bacteria to horse gastric mucosal epithelial cell: cells adhered to one gastric mucosal epithelial cell, 37° C., Giemsa stain
Protocol: Meanwhile, gastric mucosal epithelial tissue pieces (1 cm^2) taken from a horse were added to 3 ml (the cell number of each bacterial strain: about 3·10^8 cells/ml) of cell culture solutions of the five bacterial stains (A) and (B) obtained in Production Example 1 above, followed by culture with shaking at 37° C. Then, the gastric mucosal epithelial tissue pieces were washed with a buffer (composition: 0.8% NaCl; 0.121% K2HPO4; 0.034% KH2PO4; pH 7.2) several times, and the gastricmucosal epithelial cells were scraped off from the gastric mucosal epithelial tissue pieces under a stereomicroscope, followed by Giemsa stain. The resultant cells were used to count the number of cells of each bacterial strain that adhered to one gastric mucosal epithelial cell under a microscope, and the adhesion was evaluated.

[5] = tested on: five Lactobacillus bacterial stains (A) and (B); test: Antibiotic resistance test, all five strains; assay type: cell-based
Protocol: as §1

[6] = Proliferative Activity Test 1 in presence of oxytetracycline hydrochloride; assay type: cell-based; parameters: key: ∘: fully proliferated; Δ: slightly proliferated; x: unproliferated; conditions: MRS agar, 37° C., 48 hours, anaerobic
Protocol: (§2) Meanwhile, the proliferative activity test in the presence of an antibiotic was performed using cell culture solutions containing (A) L. equi YIT0483 strain and (B) at least one selected from the four Lactobacillus strains in combination.
(§3) MRS agar mediums (manufactured by Difco) to which oxytetracycline hydrochloride was added as an antibiotic at concentrations of 10, 5, 2, and 0 µg/ml were prepared. Subsequently, a cell culture solution of only (A) L. equi strain and a mixed cell culture solution of (A) L. equi strain and (B) L. reuteri strain (10 μl each) were separately inoculated into the respective antibiotic-containing MRS mediums (the cell number of each bacterial strain: about 1·10^6 cells/ml), followed by smear culture at 37° C. for 48 hours under anaerobic conditions. Then, the proliferative activities of the bacteria were evaluated with the naked eye.

[7] = Proliferative Activity Test 3 in presence of ofloxacin; assay type: cell-based; parameters: key: ∘: fully proliferated; Δ: slightly proliferated; x: unproliferated; conditions: MRS agar, 37° C., 48 hours, anaerobic
Protocol: as §2
as §3, with “ofloxacin” for “oxytetracycline hydrochloride”, “100, 50, 20,” for “10, 5, 2,”, “μg/ml” for “µg/ml”, “johnsonii strain or L. equi strain and L. crispatus” for “reuteri”

[8] = Proliferative Activity Test 2 in presence of gentamicin; assay type: cell-based; parameters: key: ∘: fully proliferated; Δ: slightly proliferated; x: unproliferated; conditions: MRS agar, 37° C., 48 hours, anaerobic
Protocol: as §2
as §3, with “gentamicin” for “oxytetracycline hydrochloride”, “100, 50, 20,” for “10, 5, 2,”, “μg/ml” for “µg/ml”, “johnsonii” for “reuteri”

[9] = tested on: L. johnsonii YIT0482 strain; test: Antibiotic resistance test, L. johnsonii; assay type: cell-based, Lactobacillus johnsonii
Protocol: as §1

Compound	Proliferative activity 24 hours later P [3]	Proliferative activity 48 hours later P [3]	Proliferative activity 24 hours later YP [3]	Proliferative activity 48 hours later YP [3]	Proliferative activity 24 hours later YE [3]	Proliferative activity 48 hours later YE [3]	Proliferative activity 24 hours later SM [3]	Proliferative activity 48 hours later SM [3]	Adhesion of bacteria to horse gastric mucosal epithelial cell [4]	further results
CC1(C)S[C@@H]2[C@H](NC(=O)Cc3ccccc3)C(=O)N2[C@H]1C(=O)O [Benzylpenicillin]										Resistance of the strain to the antibiotic (in words) [1]: stronger resistance
CO/N=C(\C(=O)N[C@@H]1C(=O)N2C(C(=O)O)=C(CSc3nc(=O)c(=O)[nH]n3C)CS[C@H]12)c1csc(N)n1 [Ceftriaxone sodium]										Resistance of the strain to the antibiotic (in words) [2]: excellent specific resistance
Lactobacillus johnsonii YIT0482 strain [(B) L. johnsonii YIT0482 strain]	∘	∘	∘	∘	∘	∘	x	x	+ (1-9 cells adhered to one gastric mucosal epithelial cell)	
Bactramin										Resistance of the strains to the antibiotic (in words) [5]: excellent resistance
Lactobacillus equi YIT0483 strain [(A) L. equi YIT0483 strain]	∘	∘	∘	∘	∘	∘	∘	∘	++ (10-99 cells adhered to one gastric mucosal epithelial cell)	Proliferative activity, Oxytetracycline 0 μg/ml ([6]; oxytetracycline 0 μg/ml): ∘; Proliferative activity, Oxytetracycline 2 μg/ml ([6]; oxytetracycline 2 μg/ml): x; Proliferative activity, Oxytetracycline 5 μg/ml ([6]; oxytetracycline 5 μg/ml): x; Proliferative activity, Oxytetracycline 10 μg/ml ([6]; oxytetracycline 10 μg/ml): x; Proliferative activity, Ofloxacin 0 μg/ml ([7]; ofloxacin 0 μg/ml): ∘; Proliferative activity, Ofloxacin 20 μg/ml ([7]; ofloxacin 20 μg/ml): x; Proliferative activity, Ofloxacin 50 μg/ml ([7]; ofloxacin 50 μg/ml): x; Proliferative activity, Ofloxacin 100 μg/ml ([7]; ofloxacin 100 μg/ml): x; Proliferative activity (in words) ([3]; under the respective medium conditions): excellent proliferative activity; Proliferative activity, Genatmicin 0 μg/ml ([8]; gentamicin 0 μg/ml): ∘; Proliferative activity, Genatmicin 20 μg/ml ([8]; gentamicin 20 μg/ml): Δ; Proliferative activity, Genatmicin 50 μg/ml ([8]; gentamicin 50 μg/ml): x; Proliferative activity, Genatmicin 100 μg/ml ([8]; gentamicin 100 μg/ml): x; Adhesion to horse gastric mucosal epithelial cells (in words) [4]: excellent
CC(=O)OCC1=C(C(=O)O)N2C(=O)[C@@H](NC(=O)Cc3cccs3)[C@H]2SC1 [Cefalotin sodium]										Resistance of the strain to the antibiotic (in words) [1]: particularly excellent resistance
CN[C@@H]1[C@H](O[C@H]2[C@H](O[C@H]3[C@H](O)[C@@H](O)[C@H](NC(=N)N)[C@@H](O)[C@@H]3NC(=N)N)O[C@@H](C)[C@]2(O)CO)O[C@@H](CO)[C@H](O)[C@H]1O [Dihydrostreptomycin]										Resistance of the strains to the antibiotic (in words) [5]: excellent resistance
COc1cc(NS(=O)(=O)c2ccc(N)cc2)ncn1 [Sulfamonomethoxine]										Resistance of the strains to the antibiotic (in words) [5]: excellent resistance
CC1(C)S[C@@H]2[C@H](NC(=O)[C@H](N)c3ccccc3)C(=O)N2[C@H]1C(=O)O [Ampicillin]										Resistance of the strain to the antibiotic (in words) [1]: particularly excellent resistance
Gentamicin										Resistance of the strain to the antibiotic (in words) [9]: excellent specific resistance
Lactobacillus crispatus YIT0481 strain [(B) L. crispatus YIT0481 strain]	∘	∘	∘	∘	∘	∘	x	∘	+ (1-9 cells adhered to one gastric mucosal epithelial cell)	
Lactobacillus salivarius YIT0479 strain [(B) L. salivarius YIT0479 strain]	∘	∘	∘	∘	∘	∘	x	∘	++ (10-99 cells adhered to one gastric mucosal epithelial cell)	
Lactobacillus reuteri YIT0480 strain [(B) L. reuteri YIT0480 strain]	∘	∘	∘	∘	∘	∘	x	x	+ (1-9 cells adhered to one gastric mucosal epithelial cell)	
